From paper PMC8155022 (Scientific Reports, 2021)

Legend:
ERβ = target: T1, ERβ (Homo sapiens, UniProt Q92731); assay: nuclear receptor cellular GAL4 reporter assay; format: cell-based; settings: agonist and antagonist mode; read-out: potency in agonist and antagonist mode
T1 construct: expressed in transfected cells

A3 (h) = target: T2, A3 (h) (Homo sapiens, UniProt P0DMS8); assay: Cerep panel; format: binding
T2 construct: purchased Cerep (receptors, ion channels, transporters); Eurofins Panlabs (kinases)
T2 sequence (P0DMS8 1-318): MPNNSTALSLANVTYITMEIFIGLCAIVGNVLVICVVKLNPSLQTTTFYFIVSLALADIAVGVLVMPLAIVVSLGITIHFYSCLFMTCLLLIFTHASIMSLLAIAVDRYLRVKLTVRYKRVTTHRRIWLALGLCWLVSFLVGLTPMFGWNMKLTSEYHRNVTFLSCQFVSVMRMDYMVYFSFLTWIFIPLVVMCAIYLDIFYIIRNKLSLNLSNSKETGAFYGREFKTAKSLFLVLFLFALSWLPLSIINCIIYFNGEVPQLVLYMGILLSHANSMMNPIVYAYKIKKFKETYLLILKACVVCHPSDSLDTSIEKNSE
Experimental: (§1) 28 GPCRs were evaluated through cAMP or calcium FLIPR assays[67]. A panel of 52 different receptors, ion channels and transporters was tested by Cerep, Inc. (Redmond, WA). Kinase selectivity was conducted by Eurofins Panlabs Inc (St Charles, MO).

GAL2 (h) = target: T3, GAL2 (h) (Homo sapiens, UniProt O43603); assay: Cerep panel; format: binding
T3 construct: purchased Cerep (receptors, ion channels, transporters); Eurofins Panlabs (kinases)
T3 sequence (O43603 whole entry): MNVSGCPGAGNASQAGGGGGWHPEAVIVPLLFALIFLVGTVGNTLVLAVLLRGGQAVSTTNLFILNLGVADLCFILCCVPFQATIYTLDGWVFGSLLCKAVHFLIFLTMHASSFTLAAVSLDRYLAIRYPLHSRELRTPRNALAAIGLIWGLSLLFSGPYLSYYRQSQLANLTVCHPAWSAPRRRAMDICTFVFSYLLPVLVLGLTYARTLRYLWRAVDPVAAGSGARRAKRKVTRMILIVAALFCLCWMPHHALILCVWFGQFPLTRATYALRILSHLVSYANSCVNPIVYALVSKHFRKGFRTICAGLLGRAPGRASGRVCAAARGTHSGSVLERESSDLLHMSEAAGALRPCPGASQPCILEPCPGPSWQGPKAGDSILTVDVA
Experimental: (§2) A panel of 52 different receptors, ion channels and transporters was tested by Cerep, Inc. (Redmond, WA).

CXCR2 (h) (IL-8B) = target: T4, CXCR2 (h) (IL-8B) (Homo sapiens, UniProt P25025); assay: Cerep panel; format: binding
T4 construct: purchased Cerep (receptors, ion channels, transporters); Eurofins Panlabs (kinases)
T4 sequence (P25025 whole entry): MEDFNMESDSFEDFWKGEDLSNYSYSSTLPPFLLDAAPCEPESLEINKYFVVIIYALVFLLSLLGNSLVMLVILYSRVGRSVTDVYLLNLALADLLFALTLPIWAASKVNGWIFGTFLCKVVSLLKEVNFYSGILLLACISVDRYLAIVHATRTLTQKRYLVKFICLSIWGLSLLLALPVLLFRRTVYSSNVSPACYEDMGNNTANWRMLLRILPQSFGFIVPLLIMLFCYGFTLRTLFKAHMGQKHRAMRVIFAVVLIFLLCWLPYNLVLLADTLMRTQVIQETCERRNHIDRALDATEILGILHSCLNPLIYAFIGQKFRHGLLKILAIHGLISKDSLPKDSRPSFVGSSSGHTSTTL
Experimental: as §2

M1 (h) = target: T5, M1 (h) (Homo sapiens, UniProt P11229); assay: Cerep panel; format: binding
T5 construct: purchased Cerep (receptors, ion channels, transporters); Eurofins Panlabs (kinases)
T5 sequence (P11229 whole entry): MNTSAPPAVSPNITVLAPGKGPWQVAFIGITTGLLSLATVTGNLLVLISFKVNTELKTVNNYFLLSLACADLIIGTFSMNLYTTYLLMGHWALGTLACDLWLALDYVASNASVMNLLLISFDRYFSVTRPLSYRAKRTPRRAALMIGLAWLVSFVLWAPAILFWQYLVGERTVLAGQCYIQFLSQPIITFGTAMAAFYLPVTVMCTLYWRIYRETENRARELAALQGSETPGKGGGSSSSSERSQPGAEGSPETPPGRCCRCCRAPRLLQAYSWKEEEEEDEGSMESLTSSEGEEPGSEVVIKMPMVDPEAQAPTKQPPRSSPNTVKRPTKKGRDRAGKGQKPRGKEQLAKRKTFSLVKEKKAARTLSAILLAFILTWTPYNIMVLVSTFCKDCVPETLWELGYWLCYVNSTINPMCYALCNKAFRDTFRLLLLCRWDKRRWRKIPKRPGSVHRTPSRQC
Experimental: as §2

[1] = target: T6, mu (h) (MOP) (agonist site) (Homo sapiens, UniProt P35372); assay: Cerep panel; format: binding
T6 construct: purchased Cerep (receptors, ion channels, transporters); Eurofins Panlabs (kinases)
Experimental: as §2

Na+ channel (site 2) = assay: Cerep panel; format: binding
Experimental: as §2

DA-T transporter (h) = target: T7, DA-T transporter (h) (Homo sapiens, UniProt Q01959); assay: Cerep panel; format: binding
T7 construct: purchased Cerep (receptors, ion channels, transporters); Eurofins Panlabs (kinases)
Experimental: 28 GPCRs were evaluated through cAMP or calcium FLIPR assays[67]. A panel of 52 different receptors, ion channels and transporters was tested by Cerep, Inc. (Redmond, WA).

5HT6 = 5HT6 (Homo sapiens, UniProt P50406); assay: GPCR panel, cAMP or calcium FLIPR assays; format: cell-based
Sequence of 5HT6 (P50406 whole entry): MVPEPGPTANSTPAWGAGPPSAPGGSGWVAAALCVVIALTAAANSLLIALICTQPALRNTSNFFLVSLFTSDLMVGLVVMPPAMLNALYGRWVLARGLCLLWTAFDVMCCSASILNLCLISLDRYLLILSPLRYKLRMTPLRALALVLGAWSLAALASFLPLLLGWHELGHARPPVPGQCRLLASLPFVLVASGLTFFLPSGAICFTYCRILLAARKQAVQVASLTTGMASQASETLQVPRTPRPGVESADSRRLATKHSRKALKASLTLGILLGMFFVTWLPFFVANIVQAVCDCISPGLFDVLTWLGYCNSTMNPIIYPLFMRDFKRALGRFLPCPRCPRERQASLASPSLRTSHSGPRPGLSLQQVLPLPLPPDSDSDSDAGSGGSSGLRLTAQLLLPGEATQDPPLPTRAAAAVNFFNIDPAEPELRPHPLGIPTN
Experimental: (§3) 28 GPCRs were evaluated through cAMP or calcium FLIPR assays[67].

ADRA2C = ADRA2C (Homo sapiens, UniProt P18825); assay: GPCR panel, cAMP or calcium FLIPR assays; format: cell-based
Experimental: as §3

D1 = D1 (Homo sapiens, UniProt P21728); assay: GPCR panel, cAMP or calcium FLIPR assays; format: cell-based
Sequence of D1 (P21728 whole entry): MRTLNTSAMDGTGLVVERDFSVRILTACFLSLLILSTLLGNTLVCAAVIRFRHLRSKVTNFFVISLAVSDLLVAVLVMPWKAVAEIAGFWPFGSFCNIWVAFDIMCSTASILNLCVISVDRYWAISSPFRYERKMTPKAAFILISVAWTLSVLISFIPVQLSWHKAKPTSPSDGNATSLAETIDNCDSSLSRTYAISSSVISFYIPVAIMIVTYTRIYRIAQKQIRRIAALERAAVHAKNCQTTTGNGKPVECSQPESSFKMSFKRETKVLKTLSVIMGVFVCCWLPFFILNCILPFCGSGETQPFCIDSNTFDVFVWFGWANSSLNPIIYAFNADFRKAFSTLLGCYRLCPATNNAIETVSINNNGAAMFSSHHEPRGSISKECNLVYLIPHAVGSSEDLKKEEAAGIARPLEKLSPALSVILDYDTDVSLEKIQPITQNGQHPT
Experimental: as §3

H1 = H1 (Homo sapiens, UniProt P35367); assay: GPCR panel, cAMP or calcium FLIPR assays; format: cell-based
Experimental: as §3

KOP = KOP (Homo sapiens, UniProt P41145); assay: GPCR panel, cAMP or calcium FLIPR assays; format: cell-based
Experimental: as §3

ALK4(h) = target: T8, ALK4(h) (Homo sapiens, UniProt P36896); assay: Kinase panel; format: biochemical
T8 construct: purchased Cerep (receptors, ion channels, transporters); Eurofins Panlabs (kinases)
Experimental: as §1

Aurora-B(h) = target: T9, Aurora-B(h) (Homo sapiens, UniProt Q96GD4); assay: Kinase panel; format: biochemical
T9 construct: purchased Cerep (receptors, ion channels, transporters); Eurofins Panlabs (kinases)
T9 sequence (Q96GD4 whole entry): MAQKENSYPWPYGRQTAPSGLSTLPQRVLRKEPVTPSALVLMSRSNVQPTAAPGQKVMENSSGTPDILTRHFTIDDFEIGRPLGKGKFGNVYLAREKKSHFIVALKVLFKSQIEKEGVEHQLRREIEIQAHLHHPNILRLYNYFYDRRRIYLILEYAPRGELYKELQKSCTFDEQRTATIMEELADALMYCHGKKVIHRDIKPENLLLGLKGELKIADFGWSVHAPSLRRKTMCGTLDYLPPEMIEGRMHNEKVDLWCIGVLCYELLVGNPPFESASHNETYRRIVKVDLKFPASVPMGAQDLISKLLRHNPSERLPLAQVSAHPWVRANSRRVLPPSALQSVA
Experimental: (§4) Kinase selectivity was conducted by Eurofins Panlabs Inc (St Charles, MO).

CDK5/p35(h) = target: T10, CDK5/p35(h) (Homo sapiens, UniProt Q00535); assay: Kinase panel; format: biochemical
T10 construct: purchased Cerep (receptors, ion channels, transporters); Eurofins Panlabs (kinases)
T10 sequence (Q00535 whole entry): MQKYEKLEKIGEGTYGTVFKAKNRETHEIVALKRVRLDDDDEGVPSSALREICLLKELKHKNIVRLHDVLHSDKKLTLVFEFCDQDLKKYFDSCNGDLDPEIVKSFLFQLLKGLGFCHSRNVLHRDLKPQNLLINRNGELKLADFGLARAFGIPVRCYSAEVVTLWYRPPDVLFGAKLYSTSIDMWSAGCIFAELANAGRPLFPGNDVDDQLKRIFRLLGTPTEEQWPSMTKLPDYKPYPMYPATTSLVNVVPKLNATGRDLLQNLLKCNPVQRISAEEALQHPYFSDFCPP
T10 sequence (Q15078 whole entry partner): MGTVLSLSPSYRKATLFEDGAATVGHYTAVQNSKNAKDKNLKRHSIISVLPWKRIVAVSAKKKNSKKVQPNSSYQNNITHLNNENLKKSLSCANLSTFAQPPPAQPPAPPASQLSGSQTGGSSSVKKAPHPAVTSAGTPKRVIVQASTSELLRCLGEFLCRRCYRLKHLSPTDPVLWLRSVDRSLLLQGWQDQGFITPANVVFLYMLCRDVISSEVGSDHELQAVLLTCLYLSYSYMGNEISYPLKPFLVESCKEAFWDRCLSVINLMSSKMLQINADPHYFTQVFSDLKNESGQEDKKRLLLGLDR
Experimental: as §4

EGFR(h) = target: T11, EGFR(h) (Homo sapiens, UniProt P00533); assay: Kinase panel; format: biochemical
T11 construct: purchased Cerep (receptors, ion channels, transporters); Eurofins Panlabs (kinases)
T11 sequence (P00533 25-1210): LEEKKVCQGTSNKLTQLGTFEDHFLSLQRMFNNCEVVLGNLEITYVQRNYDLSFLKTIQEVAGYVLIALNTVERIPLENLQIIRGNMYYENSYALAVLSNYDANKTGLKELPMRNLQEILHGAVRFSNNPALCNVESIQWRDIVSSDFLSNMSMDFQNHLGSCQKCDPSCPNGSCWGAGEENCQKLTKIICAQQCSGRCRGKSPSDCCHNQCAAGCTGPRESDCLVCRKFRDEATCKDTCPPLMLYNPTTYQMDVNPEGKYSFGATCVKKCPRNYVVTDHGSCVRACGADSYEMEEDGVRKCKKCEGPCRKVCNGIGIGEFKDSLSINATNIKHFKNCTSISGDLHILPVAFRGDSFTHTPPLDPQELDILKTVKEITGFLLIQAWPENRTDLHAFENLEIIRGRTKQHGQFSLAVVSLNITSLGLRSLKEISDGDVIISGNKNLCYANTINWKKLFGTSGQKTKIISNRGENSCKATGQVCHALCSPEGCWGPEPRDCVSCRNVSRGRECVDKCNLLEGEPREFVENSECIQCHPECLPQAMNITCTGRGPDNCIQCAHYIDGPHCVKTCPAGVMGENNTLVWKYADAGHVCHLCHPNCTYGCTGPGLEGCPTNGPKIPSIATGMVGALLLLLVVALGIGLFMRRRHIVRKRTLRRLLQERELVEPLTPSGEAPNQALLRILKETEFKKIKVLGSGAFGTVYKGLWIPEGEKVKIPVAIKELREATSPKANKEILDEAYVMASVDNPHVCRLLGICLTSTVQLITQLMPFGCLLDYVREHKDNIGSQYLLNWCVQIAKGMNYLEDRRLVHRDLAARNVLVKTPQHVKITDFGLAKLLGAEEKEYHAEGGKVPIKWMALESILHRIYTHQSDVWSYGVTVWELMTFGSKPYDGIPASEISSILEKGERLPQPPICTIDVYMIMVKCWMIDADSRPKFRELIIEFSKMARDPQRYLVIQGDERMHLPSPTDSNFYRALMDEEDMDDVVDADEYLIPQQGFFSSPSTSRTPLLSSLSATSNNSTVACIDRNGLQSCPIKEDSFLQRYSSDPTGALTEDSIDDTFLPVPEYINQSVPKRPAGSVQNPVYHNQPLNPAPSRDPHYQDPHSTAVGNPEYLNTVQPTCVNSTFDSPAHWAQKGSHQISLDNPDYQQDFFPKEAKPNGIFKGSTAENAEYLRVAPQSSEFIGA
Experimental: as §4

PAK4(h) = target: T12, PAK4(h) (Homo sapiens, UniProt O96013); assay: Kinase panel; format: biochemical
T12 construct: purchased Cerep (receptors, ion channels, transporters); Eurofins Panlabs (kinases)
Experimental: as §4

PKBα(h) = target: T13, PKBα(h) (Homo sapiens, UniProt P31749); assay: Kinase panel; format: biochemical
T13 construct: purchased Cerep (receptors, ion channels, transporters); Eurofins Panlabs (kinases)
Experimental: as §4

Rsk3(h) = target: T14, Rsk3(h) (Homo sapiens, UniProt Q15349); assay: Kinase panel; format: biochemical
T14 construct: purchased Cerep (receptors, ion channels, transporters); Eurofins Panlabs (kinases)
T14 sequence (Q15349 whole entry): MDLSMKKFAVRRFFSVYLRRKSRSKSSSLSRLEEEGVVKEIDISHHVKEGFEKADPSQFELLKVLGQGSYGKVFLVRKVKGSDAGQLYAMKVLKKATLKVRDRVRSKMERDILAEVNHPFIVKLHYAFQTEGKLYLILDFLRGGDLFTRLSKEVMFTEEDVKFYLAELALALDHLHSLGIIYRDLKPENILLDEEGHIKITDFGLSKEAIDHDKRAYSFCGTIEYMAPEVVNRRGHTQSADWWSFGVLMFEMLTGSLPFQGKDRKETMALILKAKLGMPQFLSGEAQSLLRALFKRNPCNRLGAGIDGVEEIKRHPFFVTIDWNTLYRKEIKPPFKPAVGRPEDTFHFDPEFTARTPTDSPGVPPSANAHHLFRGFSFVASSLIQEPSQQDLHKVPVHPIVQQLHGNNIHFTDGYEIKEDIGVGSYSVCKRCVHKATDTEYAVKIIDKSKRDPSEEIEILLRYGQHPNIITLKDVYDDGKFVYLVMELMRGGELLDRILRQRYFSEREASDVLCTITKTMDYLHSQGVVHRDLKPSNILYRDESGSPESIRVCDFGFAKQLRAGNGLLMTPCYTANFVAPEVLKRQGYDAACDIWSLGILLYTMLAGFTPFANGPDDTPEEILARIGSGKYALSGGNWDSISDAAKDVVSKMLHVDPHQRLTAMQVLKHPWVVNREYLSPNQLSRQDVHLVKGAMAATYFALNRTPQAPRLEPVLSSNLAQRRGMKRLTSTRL
Experimental: as §4

TrkC(h) = target: T15, TrkC(h) (Homo sapiens, UniProt Q16288); assay: Kinase panel; format: biochemical
T15 construct: purchased Cerep (receptors, ion channels, transporters); Eurofins Panlabs (kinases)
Experimental: as §4

[2] = system: IMQ-induced skin inflammation in mice; assay: imiquimod-induced dermal inflammation model; format: in vivo, mouse
rabbit fetal development = assay: rabbit embryo-fetal study; format: in vivo
Experimental: Therefore, SAD was dosed only up to 200 mg.

[3] = system: ex vivo stimulated IL-17A production; assay: phase 1 single ascending dose study, ex vivo stimulated IL-17A production in whole blood; set-up: species or system human
Experimental: The sampling was performed up to 120 h post-dose for cohort 1 (10 mg) and cohort 2 (30 mg), and extended to 504 h for cohort 3, 4 and 5.
Whole blood samples were collected on the morning of day 1 at pre-dose and at 1, 2, 6, 12, 24, 48, 96, and 120 h post-dose in Cohorts 1 and 2. For Cohort 3,4, and 5, samples were collected the morning of day 1 at pre-dose and at 2, 6, 12, 24, 48, 120, 312 and 504 h post-dose. Blood samples (1 ml) were drawn into TruCulture tubes (Myriad RBM, Austin, TX) which contained 2 ml of cocktail containing cell culture media and stimulants, then mixed and incubated at 37 °C in a block thermostat for 48 h. The final concentrations of the stimulants in the TruCulture tube incubations were: IL-23 (50 ng/ml), and IL-1β (10 ng/ml), with anti-CD3 and anti-CD28 antibodies at standard concentration as per standard CD3/CD28 TruCulture tubes. Negative control tubes (no stimulants) were also collected at each timepoint. Supernatants were collected after the end of the incubation period and analyzed to determine concentrations of induced IL-17A using a validated immunoassay method (human IL-17A V-plex kit from Meso Scale Discovery).

CC1CCCN1C(=O)c1nc(C(=O)NCC(C)(C)O)sc1-c1ccc(C(O)(C(F)(F)F)C(F)(F)F)c(Cl)c1Cl (stereo not drawn) [JNJ-61803534]
IC50 (ERβ): > 1.5 µM
inhibition at 1 µM (A3 (h); 1 µM): < 10%
% Inhibition at 10 µM (A3 (h); 10 µM): 45.2%
inhibition at 10 µM (A3 (h); 10 µM): > 50%
inhibition at 1 µM (GAL2 (h)): < 10%
inhibition at 10 µM (GAL2 (h)): < 10%
inhibition at 1 µM (CXCR2 (h) (IL-8B)): < 10%
inhibition at 10 µM (CXCR2 (h) (IL-8B)): < 10%
inhibition at 1 µM (M1 (h)): < 10%
inhibition at 10 µM (M1 (h)): < 10%
inhibition at 1 µM [1]: < 10%
inhibition at 10 µM [1]: 12.2%
% Inhibition at 1 µM (Na+ channel (site 2); 1 µM): 15%
% Inhibition at 10 µM (Na+ channel (site 2); 10 µM): 46%
inhibition at 1 µM (DA-T transporter (h)): < 10%
inhibition at 10 µM (DA-T transporter (h)): < 10%
EC50 (5HT6; agonist): > 12.5 µM
IC50 (5HT6; antagonist): > 12.5 µM
EC50 (ADRA2C; agonist): > 12.5 µM
IC50 (ADRA2C; antagonist): > 12.5 µM
EC50 (D1; agonist): > 12.5 µM
IC50 (D1; antagonist): > 12.5 µM
EC50 (H1; agonist): > 10 µM
IC50 (H1; antagonist): > 10 µM
EC50 (KOP; agonist): > 12.5 µM
IC50 (KOP; antagonist): > 12.5 µM
activity at 1 µM (ALK4(h)): 104%
activity at 10 µM (ALK4(h)): 108%
activity at 1 µM (Aurora-B(h)): 124%
activity at 10 µM (Aurora-B(h)): 145%
activity at 1 µM (CDK5/p35(h)): 97%
activity at 10 µM (CDK5/p35(h)): 107%
activity at 1 µM (EGFR(h)): 100%
activity at 10 µM (EGFR(h)): 101%
activity at 1 µM (PAK4(h)): 104%
activity at 10 µM (PAK4(h)): 103%
activity at 1 µM (PKBα(h)): 97%
activity at 10 µM (PKBα(h)): 95%
activity at 1 µM (Rsk3(h)): 107%
activity at 10 µM (Rsk3(h)): 104%
activity at 1 µM (TrkC(h)): 92%
activity at 10 µM (TrkC(h)): 88%
IL-17A and IL-17F expression ([2]; 30 mg/kg, ears, RNA level): trend towards inhibition
IMQ-induced neutrophils and inflammatory monocytes infiltrations in the ear ([2]; 100 mg/kg): significantly reduced
IMQ-induced expression of IL-17A, IL-17F, and IL-22 genes ([2]; 100 mg/kg, ears, RNA level): significantly inhibited
disease scores (thickness, redness, scaling) of back skin ([2]; 30 and 100 mg/kg oral, dose-dependent): significantly reduced
IL-10 expression ([2]; 30 and 100 mg/kg, RNA level): not inhibited
IL-23R expression ([2]; 30 and 100 mg/kg, RNA level): trend towards inhibition
IFNγ expression ([2]; RNA level): minimally impacted
IL-17A- and IL-17A/IL-22-producing γδ T cell populations ([2]; ear skin and draining lymph nodes, dose-dependent): reduced
effect on fetal development (rabbit fetal development): fetal development was impacted
maximum inhibition of ex vivo stimulated IL-17A production as compared to placebo ([3]; 100 mg single dose, fasted (cohort 3)): 45%
maximum inhibition of ex vivo stimulated IL-17A production as compared to placebo ([3]; 200 mg single dose (cohort 4)): 54%
IL-17A inhibition ([3]; 10 and 30 mg doses): did not appear to show a separation from placebo
